The values below come from patent publication US12673961B2 (Agios Pharmaceuticals, Inc., priority 2022, dated 2026).

Bounds are passed on as bounds.

The target of the first test is T1, human PAH with the R408W mutation (Homo sapiens, UniProt P00439, R408W).
T1 construct: expressed in transfected cells
T1 sequence (P00439 1-452 R408W): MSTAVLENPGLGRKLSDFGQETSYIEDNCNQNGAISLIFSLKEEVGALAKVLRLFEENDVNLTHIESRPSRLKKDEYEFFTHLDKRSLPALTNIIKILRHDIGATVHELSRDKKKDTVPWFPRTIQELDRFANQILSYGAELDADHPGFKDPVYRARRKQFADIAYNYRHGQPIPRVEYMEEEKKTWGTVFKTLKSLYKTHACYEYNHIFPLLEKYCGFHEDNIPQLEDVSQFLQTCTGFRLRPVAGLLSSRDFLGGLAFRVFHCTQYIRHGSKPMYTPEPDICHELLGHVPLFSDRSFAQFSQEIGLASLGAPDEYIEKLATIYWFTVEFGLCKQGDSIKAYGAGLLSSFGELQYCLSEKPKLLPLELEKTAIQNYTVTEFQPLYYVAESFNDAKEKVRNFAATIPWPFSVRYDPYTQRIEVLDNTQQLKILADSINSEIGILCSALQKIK
In words: Cell Based Phenylalanine Flux Assay.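 Note: Ten-point dose curve from 2-fold serial dilutions, run in duplicate at 0.5% DMSO final, tracer step used 20 µM sepiapterin and 800 µM labeled phenylalanine.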 The note with it: A375 cells expressing R408W PAH; 24 hrs with compound, then 20 μM sepiapterin and 800 μM 13C9,15N-Phenylalanine for 4 hours; 13C-Tyrosine in media by LC-MS; average where tested multiple times. Details: scale not given here.
For orientation: AC50 means the concentration at which the activity in the assay is half-maximal. Consider `Cn1cnc(-c2nc(C(F)F)c(C(=O)N3CCc4[nH]cnc4C3c3cc4ccccn4n3)o2)c1` (stereo not shown), for which the concentration at half-maximal activity (AC50) entry is on record as “E, E”.

Still in this test, the particulars now being: A375 cells expressing R408W PAH; 24 hrs with compound, then 20 μM sepiapterin and 800 μM 13C9,15N-Phenylalanine for 4 hours; 13C-Tyrosine in media by LC-MS; average where tested multiple times; read-out: AC50.
On to `O=C(c1nnc(C2CC(F)(F)C2)o1)N1CCc2[nH]cnc2[C@H]1c1cc2cccc(C(F)F)n2n1` (single isomer, unassigned), for which the AC50 lay in the range of 1000 to 5000 nM.
On the same count and under the same terms, under `Cn1cc(-c2nnc(N3CCc4[nH]cnc4[C@H]3c3cc4c(C(F)(F)F)cccn4n3)o2)cn1` (single isomer, unassigned) stands 1000 to 5000 nM.

The same test, now with this note: A375 cells expressing human R408W PAH; 24 hrs compound incubation; 13C-Tyrosine by LC-MS; average where tested multiple times; read-out: AC50.
For `O=C(c1nnc(-c2ccn(C(F)F)n2)o1)N1CCc2[nH]cnc2[C@@H]1c1cc2c(C(F)F)cccn2n1` [Example 1376, (R)-(5-(1-(difluoromethyl)-1H-pyrazol-3-yl)-1,3,4-oxadiazol-2-yl)(4-(4-(difluoromethyl)pyrazolo[1,5-a]pyridin-2-yl)-6,7-dihydro-1H-imidazo[4,5-c]pyridin-5(4H)-yl)methanone], the AC50 is > 5000 nM.
In the case of `O=C(c1nnc(C2CC2)o1)N1CCc2[nH]cnc2[C@H]1c1cc2cccc(Cl)n2n1` [Example 1137], the AC50 is 500 to 1000 nM.
The same measure, in the same setting: under `Cn1nc(C(F)(F)F)nc1C(=O)N1CCc2[nH]cnc2[C@H]1c1cc2c(C(F)(F)F)cccn2n1` [Example 1062, (S)-(1-methyl-3-(trifluoromethyl)-1H-1,2,4-triazol-5-yl)(4-(4-(trifluoromethyl)pyrazolo[1,5-a]pyridin-2-yl)-6,7-dihydro-1H-imidazo [4,5-c]pyridin-5(4H)-yl)methanone] stands < 500 nM; under `Cc1c(-c2nnc(C(=O)N3CCc4[nH]cnc4[C@@H]3c3cc4c(C(F)F)cccn4n3)o2)cnn1C` [Example 1349], > 5000 nM; under `Cc1c(-c2nnc(C(=O)N3CCc4[nH]cnc4[C@H]3c3cc4cccc(C)n4n3)o2)cnn1C` [Example 1188, (S)-(5-(1,5-dimethyl-1H-pyrazol-4-yl)-1,3,4-oxadiazol-2-yl)(4-(7-methylpyrazolo[1,5-a]pyridin-2-yl)-6,7-dihydro-1H-imidazo[4,5-c]pyridin-5(4H)-yl)methanone], 500 to 1000 nM.

The same test, now with this note: A375 cells expressing human R408W PAH; 24 hrs with compound, then sepiapterin and 13C9,15N-Phenylalanine for 4 hours; 13C-Tyrosine by LC-MS; average where tested multiple times; read-out: AC50.
For `O=C(c1nnc(-c2ccc(F)cn2)o1)N1CCc2[nH]cnc2[C@H]1c1cc2ccccn2n1` [Example 2365, (S)-(5-(5-fluoropyridin-2-yl)-1,3,4-oxadiazol-2-yl)(4-(pyrazolo[1,5-a]pyridin-2-yl)-6,7-dihydro-1H-imidazo[4,5-c]pyridin-5(4H)-yl)methanone], the AC50 is 1000 to 5000 nM.
Still for that read-out and setting: under `CC(C)c1cccn2nc([C@@H]3c4nc[nH]c4CCN3C(=O)c3nnc(-c4ncccc4F)o3)cc12` [Example 1906, (S)-(5-(3-fluoropyridin-2-yl)-1,3,4-oxadiazol-2-yl)(4-(4-isopropylpyrazolo[1,5-a]pyridin-2-yl)-1,4,6,7-tetrahydro-5H-imidazo[4,5-c]pyridin-5-yl)methanone] stands < 500 nM.
As for `CCc1cccn2nc([C@@H]3c4nc[nH]c4CCN3C(=O)c3nnc(-c4cnn(C)c4)o3)cc12` [Example 1924, (S)-(4-(4-ethylpyrazolo [1,5-a]pyridin-2-yl)-1,4,6,7-tetrahydro-5H-imidazo[4,5-c]pyridin-5-yl)(5-(1-methyl-1H-pyrazol-4-yl)-1,3,4-oxadiazol-2-yl)methanone], the AC50 is < 500 nM.
The same measure, in the same setting: the same measure for `Cc1c[nH]nc1-c1nnc(C(=O)N2CCc3[nH]cnc3[C@@H]2c2cc3c(F)cccn3n2)o1` [Example 2297, (R)-(4-(4-fluoropyrazolo [1,5-a]pyridin-2-yl)-1,4,6,7-tetrahydro-5H-imidazo[4,5-c]pyridin-5-yl)(5-(4-methyl-1H-pyrazol-3-yl)-1,3,4-oxadiazol-2-yl)methanone]: > 5000 nM; for `Cc1cccc2cc([C@H]3c4nc[nH]c4CCN3c3nnc(-c4c(F)cccc4F)o3)nn12` [Example 2090, (R)-2-(2,6-difluorophenyl)-5-(4-(7-methylpyrazolo[1,5-a]pyridin-2-yl)-1,4,6,7-tetrahydro-5H-imidazo[4,5-c]pyridin-5-yl)-1,3,4-oxadiazole]: > 5000 nM; for `Cc1ncccc1-c1nnc(N2CCc3[nH]cnc3[C@H]2c2cc3c(C(F)(F)F)cccn3n2)o1` [Example 2208, (S)-2-(2-methylpyridin-3-yl)-5-(4-(4-(trifluoromethyl)pyrazolo [1,5-a]pyridin-2-yl)-1,4,6,7-tetrahydro-5H-imidazo [4,5-c]pyridin-5-yl)-1,3,4-oxadiazole]: 500 to 1000 nM.
Turning to `O=C(c1nnc(-c2cccnc2)o1)N1CCc2[nH]cnc2[C@@H]1c1cc2c(C(F)F)cccn2n1` [Example 1423, (R)-(4-(4-(difluoromethyl)pyrazolo[1,5-a]pyridin-2-yl)-6,7-dihydro-1H-imidazo [4,5-c]pyridin-5(4H)-yl)(5-(pyridin-3-yl)-1,3,4-oxadiazol-2-yl)methanone], the AC50 is > 5000 nM.
Same read-out and setting: under `CN(C)c1ccc2c(C(=O)N3CCc4[nH]cnc4[C@@H]3c3cc4cccc(Cl)n4n3)cnn2c1` [Example 2475, (R)-(4-(7-chloropyrazolo [1,5-a]pyridin-2-yl)-6,7-dihydro-1H-imidazo[4,5-c]pyridin-5(4H)-yl)(6-(dimethylamino)pyrazolo[1,5-a]pyridin-3-yl)methanone] stands > 5000 nM; under `CC(C)(F)c1nnc(C(=O)N2CCc3[nH]cnc3[C@@H]2c2cc3c(Br)cccn3n2)o1` [Example 1939, (R)-(4-(4-bromopyrazolo [1,5-a]pyridin-2-yl)-1,4,6,7-tetrahydro-5H-imidazo [4,5-c]pyridin-5-yl)(5-(2-fluoropropan-2-yl)-1,3,4-oxadiazol-2-yl)methanone], 1000 to 5000 nM.
`O=C(c1oc(-c2ccccn2)nc1C1CC1)N1CCc2[nH]cnc2[C@H]1c1cc2c(C(F)(F)F)cccn2n1` [Example 2124, (S)-(4-cyclopropyl-2-(pyridin-2-yl)oxazol-5-yl)(4-(4-(trifluoromethyl)pyrazolo [1,5-a]pyridin-2-yl)-1,4,6,7-tetrahydro-5H-imidazo[4,5-c]pyridin-5-yl)methanone]: the half-maximal activity concentration (AC50) was < 500 nM.
Same read-out and setting: under `Cc1cccn2nc([C@@H]3c4nc[nH]c4CCN3C(=O)c3nc(C(F)F)nn3C)cc12` [Example 2214, (S)-(3-(difluoromethyl)-1-methyl-1H-1,2,4-triazol-5-yl)(4-(4-methylpyrazolo[1,5-a]pyridin-2-yl)-6,7-dihydro-1H-imidazo[4,5-c]pyridin-5(4H)-yl)methanone] stands < 500 nM.
Same read-out and setting: the same measure for `Fc1cccc(F)c1-c1nnc(N2CCc3[nH]cnc3[C@@H]2c2cc3c(Cl)cccn3n2)o1` [Example 2062, (R)-2-(4-(4-chloropyrazolo [1,5-a]pyridin-2-yl)-1,4,6,7-tetrahydro-5H-imidazo [4,5-c]pyridin-5-yl)-5-(2,6-difluorophenyl)-1,3,4-oxadiazole]: > 5000 nM; for `Cn1ccc(-c2ccc3c(C(=O)N4CCc5[nH]cnc5[C@@H]4c4cc5ccccn5n4)cnn3c2)n1` [Example 1435, (R)-(6-(1-methyl-1H-pyrazol-3-yl)pyrazolo[1,5-a]pyridin-3-yl)(4-(pyrazolo [1,5-a]pyridin-2-yl)-6,7-dihydro-1H-imidazo[4,5-c]pyridin-5(4H)-yl)methanone]: 1000 to 5000 nM.
In the case of `FC(F)Oc1cccn2nc([C@@H]3c4nc[nH]c4CCN3c3ccc(C(F)(F)F)cn3)cc12` [Example 2272, (S)-4-(4-(difluoromethoxy)pyrazolo[1,5-a]pyridin-2-yl)-5-(5-(trifluoromethyl)pyridin-2-yl)-4,5,6,7-tetrahydro-1H-imidazo[4,5-c]pyridine], the AC50 is < 500 nM.
